From publication PMC11655547, “Dual functions of silibinin in attenuating aortic dissection via regulating iron homeostasis and endoplasmic reticulum stress against ferroptosis” (Cell Death & Disease, 2024)

Biological target: T1, HMOX1 (heme oxygenase 1) (Homo sapiens, UniProt P09601)
T1 sequence (P09601 1-288): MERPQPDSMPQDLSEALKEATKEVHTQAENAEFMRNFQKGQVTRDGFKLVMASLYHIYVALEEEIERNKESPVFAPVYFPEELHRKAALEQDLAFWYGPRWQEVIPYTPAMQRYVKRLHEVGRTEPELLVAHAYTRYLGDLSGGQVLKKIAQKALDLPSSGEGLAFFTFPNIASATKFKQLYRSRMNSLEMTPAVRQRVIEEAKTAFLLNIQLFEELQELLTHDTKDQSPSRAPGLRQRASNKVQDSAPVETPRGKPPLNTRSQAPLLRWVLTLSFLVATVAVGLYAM
Assay: SPR ([…] SIL); supported by CETSA and DARTS
Format: binding

With COc1cc(C2Oc3cc([C@H]4Oc5cc(O)cc(O)c5C(=O)[C@@H]4O)ccc3OC2CO)ccc1O (stereo partly shown) [SIL, Silibinin] as the molecule, how does the Kd read?
The Kd was 46 µM.
